Measured values as given in ChEMBL document CHEMBL4699496, “Exploring efficacy of natural-derived acetylphenol scaffold inhibitors for α-glucosidase: Synthesis, in vitro and in vivo biochemical studies” (Bioorg Med Chem Lett, 2020).
Each block holds one molecule with its values, some of them ahead of it. Calls of active or inactive are those of the source. The rule behind the calls is not given here.

How the values were obtained:
[1] = Inhibition of alpha-glucosidase (unknown origin); design: species or system Homo sapiens
Homo sapiens [2] = organism: Homo sapiens; test: Binding affinity to alpha-glucosidase (unknown origin) assessed as change in gibbs free energy at 298 K by Van't Hoff equation analysis
Homo sapiens [3] = organism: Homo sapiens; test: Binding affinity to alpha-glucosidase (unknown origin) assessed as binding constant at 298 K
Rattus norvegicus [4] = organism: Rattus norvegicus; test: Inhibition of alpha-glucosidase in rat everted intestinal sleeves assessed as reduction in glucose concentration within intestinal sleeves at 0.173 mM measured for 5 to 90 mins; assay type: tissue-based; details: Intestine, time min 5-90
Homo sapiens [5] = organism: Homo sapiens; test: Binding affinity to alpha-glucosidase (unknown origin) assessed as hydrogen bonding interactions by measuring change in entropy at 304 K by Van't Hoff equation analysis
Homo sapiens [6] = organism: Homo sapiens; test: Non-competitive inhibition of alpha-glucosidase (unknown origin) assessed as decrease in Vmax with constant Km at 0.0 to 2.5 uM using p-NPG as substrate by Lineweaver-Burk plot analysis; details: dose microM 0.0-2.5
[7] = Binding affinity to alpha-glcosidase (unknown origin) using p-NPG as substrate; design: species or system Homo sapiens
Homo sapiens [8] = organism: Homo sapiens; test: Binding affinity to alpha-glucosidase (unknown origin) assessed as fluorescence quenching at 0.33 to 3.66 uM by fluorescence spectral analysis; details: dose microM 0.33-3.66
Homo sapiens [9] = organism: Homo sapiens; test: Binding affinity to alpha-glucosidase (unknown origin) assessed as Stern-Volmer quenching constant at 298 K
Homo sapiens [10] = organism: Homo sapiens; test: Binding affinity to alpha-glucosidase (unknown origin) assessed as Stern-Volmer quenching constant at 304 K
Homo sapiens [11] = organism: Homo sapiens; test: Binding affinity to alpha-glucosidase (unknown origin) assessed as Stern-Volmer quenching constant at 310 K
Homo sapiens [12] = organism: Homo sapiens; test: Binding affinity to alpha-glucosidase (unknown origin) assessed as binding constant at 304 K
Homo sapiens [13] = organism: Homo sapiens; test: Binding affinity to alpha-glucosidase (unknown origin) assessed as binding constant at 310 K
Homo sapiens [14] = organism: Homo sapiens; test: Binding affinity to alpha-glucosidase (unknown origin) assessed as hydrophobic interactions by measuring change in enthalpy at 304 K by Van't Hoff equation analysis
Homo sapiens [15] = organism: Homo sapiens; test: Binding affinity to alpha-glucosidase (unknown origin) assessed as change in gibbs free energy at 304 K by Van't Hoff equation analysis
Homo sapiens [16] = organism: Homo sapiens; test: Binding affinity to alpha-glucosidase (unknown origin) assessed as change in gibbs free energy at 310 K by Van't Hoff equation analysis
Mus musculus [17] = organism: Mus musculus; test: Hypoglycemic activity in Kunming mouse assessed as reduction in maltose-induced postprandial blood glucose level measured after 15 to 120 mins by maltose loading test; assay type: functional, organism-based; details: time min 15-120
Mus musculus [18] = organism: Mus musculus; test: Hypoglycemic activity in Kunming mouse assessed as reduction in maltose-induced blood glucose AUC (0 to 120 mins) by maltose loading test; assay type: functional, organism-based; details: time min 0-120
Rattus norvegicus [19] = organism: Rattus norvegicus; test: Inhibition of alpha-glucosidase in rat everted intestinal sleeves assessed as reduction in glucose concentration outside of the intestinal sleeves at 0.173 mM measured after 5 to 90 mins; assay type: tissue-based; details: Intestine, time min 5-90
Homo sapiens [20] = organism: Homo sapiens; test: Binding affinity to alpha-glucosidase (unknown origin) assessed as enzyme complexation with compound by measuring mean height of enzyme at 2.5 uM by atomic force microscopy (reference value: 0.87 nm)
Homo sapiens [21] = organism: Homo sapiens; test: Binding affinity to alpha-glucosidase (unknown origin) assessed as enzyme complexation with compound at 2.5 uM by measuring mean width of enzyme by atomic force microscopy (reference value: 28.35 nm)
Homo sapiens [22] = organism: Homo sapiens; test: Binding affinity to alpha-glucosidase (unknown origin) assessed as quenching constant at 304 K
Homo sapiens [23] = organism: Homo sapiens; test: Binding affinity to alpha-glucosidase (unknown origin) assessed as quenching constant at 310 K
Homo sapiens [24] = organism: Homo sapiens; test: Binding affinity to alpha-glucosidase (unknown origin) assessed as quenching constant at 298 K
Homo sapiens [25] = organism: Homo sapiens; test: Binding affinity to alpha-glucosidase (unknown origin) assessed as decrease in fluorescence intensity of Trp residue without shift in maximum emission wavelength at 0.33-3.22 uM by fluorescence based Synchronous fluorescence spectroscopy; details: dose microM 0.33-3.22
Homo sapiens [26] = organism: Homo sapiens; test: Binding affinity to alpha-glucosidase (unknown origin) assessed as decrease in fluorescence intensity of Tyr residue without shift in maximum emission wavelength at 0.33 to 3.22 uM by fluorescence based Synchronous fluorescence spectroscopy; details: dose microM 0.33-3.22
Rattus norvegicus [27] = organism: Rattus norvegicus; test: Inhibition of alpha-glucosidase in rat everted intestinal sleeves assessed as reduction in blood glucose AUC (0-90) within intestinal sleeves at 0.173 mM; assay type: tissue-based; details: Intestine, time min 0-90
Rattus norvegicus [28] = organism: Rattus norvegicus; test: Inhibition of alpha-glucosidase in rat everted intestinal sleeves assessed as reduction in blood glucose AUC (0-90) outside of the intestinal sleeves at 0.173 mM; assay type: tissue-based; details: Intestine, time min 0-90
Homo sapiens [29] = organism: Homo sapiens; test: Binding affinity to alpha-glucosidase (unknown origin) assessed as destabilization of enzyme conformation by measuring induction of protein aggregation at 2.5 uM by atomic force microscopy
Homo sapiens [30] = organism: Homo sapiens; test: Binding affinity to alpha-glucosidase (unknown origin) assessed as change in the microenvironment of tyrosine and tryptophan residues at 0.33 to 3.32 uM by fluorescence based Synchronous fluorescence spectroscopy; details: dose microM 0.33-3.32

Structure (SMILES): CCC(=O)Oc1cc(O)c(C(=O)C(C)C)cc1C
- IC50 [1]: Not Active

Structure (SMILES): Cc1cc(C(=O)C(C)C)c(O)cc1OC(=O)c1ccc(Br)cc1
- IC50 ([1]; read-out: IC50): 26 µM

Structure (SMILES): CC(C)C(=O)c1cc(Br)c(OC(=O)CCl)cc1O
- IC50 ([1]; read-out: IC50): 143 µM

Structure (SMILES): CCCCC(=O)c1ccc(O)cc1O
- IC50 [1]: Not Active

Structure (SMILES): CCC(=O)c1ccc(OC(=O)CI)cc1O
- IC50 [1]: Not Active

Structure (SMILES): Cc1cc(C(=O)C(C)C)c(O)cc1OC(=O)CCl
- IC50 ([1]; read-out: IC50): 140 µM

Structure (SMILES): Cc1cc(C(=O)C(C)C)c(O)cc1OC(=O)c1ccccc1Cl
- IC50 ([1]; read-out: IC50): 27.4 µM

Structure (SMILES): Cc1cc(C(=O)C(C)C)c(O)c(Br)c1OC(=O)CCl
- IC50 ([1]; read-out: IC50): 30.9 µM

Structure (SMILES): CCCCCCCC(=O)c1cc(C)c(O)cc1O
- IC50 ([1]; read-out: IC50): 35.6 µM

Structure (SMILES): CCC(=O)c1cc(C)c(O)cc1O
- IC50 [1]: Not Active

Structure (SMILES): CC(C)C(=O)Oc1ccc(C(=O)C(C)C)c(O)c1
- IC50 ([1]; read-out: IC50): 72.5 µM

Structure (SMILES): CCCCCCC(=O)c1ccc(O)cc1O
- IC50 ([1]; read-out: IC50): 81.9 µM

Structure (SMILES): CCCCCC(=O)c1ccc(O)cc1O
- IC50 ([1]; read-out: IC50): 107 µM

Structure (SMILES): CCCCCC(=O)c1cc(C)c(O)cc1O
- IC50 ([1]; read-out: IC50): 66.5 µM

Structure (SMILES): CC(C)C(=O)c1ccc(OC(=O)CCl)cc1O
- IC50 [1]: Not Active

Structure (SMILES): CC(=O)Oc1cc(O)c(C(=O)C(C)C)cc1C
- IC50 [1]: Not Active

Second part, led by results:

- IC50 ([1]; read-out: IC50): 14.9 µM
Structure (SMILES): Cc1cc(C(=O)C(C)C)c(O)cc1OC(=O)CBr

- IC50 ([1]; read-out: IC50): 24.7 µM
Structure (SMILES): CCCCC(=O)Oc1cc(O)c(C(=O)C(C)C)cc1C

- IC50 ([1]; read-out: IC50): 23.7 µM
Structure (SMILES): Cc1cc(C(=O)C(C)C)c(O)cc1O

- IC50 ([1]; read-out: IC50): 20.6 µM
Structure (SMILES): Cc1cc(C(=O)C(C)C)c(O)c(Br)c1OC(=O)c1ccc([N+](=O)[O-])cc1

- IC50 ([1]; read-out: IC50): 16 µM
Structure (SMILES): Cc1cc(C(=O)C(C)C)c(O)cc1OC(=O)C(C)(C)C

- deltaG (Homo sapiens [2]): -17.7 kJ/mol
- Ka (Homo sapiens [3]): 1.39 10^4L/mol
- inhibition (Rattus norvegicus [4]): Active
- deltaS (Homo sapiens [5]): 45 J/mol/K
- IC50 ([1]; read-out: IC50): 1.69 µM
- inhibition (Homo sapiens [6]): Active
- Ki [7]: 1.62 µM
- Activity (Homo sapiens [8]): Active
- KSV (Homo sapiens [9]): 2.27 10^4L/mol
- KSV (Homo sapiens [10]): 1.95 10^4L/mol
- KSV (Homo sapiens [11]): 1.64 10^4L/mol
- Ka (Homo sapiens [12]): 1.34 10^4L/mol
- Ka (Homo sapiens [13]): 1.3 10^4L/mol
- deltaH (Homo sapiens [14]): -4.28 kJ/mol
- deltaG (Homo sapiens [15]): -18 kJ/mol
- deltaG (Homo sapiens [16]): -18.2 kJ/mol
- inhibition (Rattus norvegicus [19]): Active
- Activity (Homo sapiens [20]): 0.75 nm
- Activity (Homo sapiens [21]): 47.5 nm
- Kq (Homo sapiens [22]): 1.95 10^12L/mol/s
- Kq (Homo sapiens [23]): 1.64 10^12L/mol/s
- Kq (Homo sapiens [24]): 2.27 10^12L/mol/s
- Activity (Homo sapiens [25]): Active
- Activity (Homo sapiens [26]): inactive
- inhibition (Rattus norvegicus [27]): Active
- inhibition (Rattus norvegicus [28]): Active
- Activity (Homo sapiens [29]): Active
- Activity (Homo sapiens [30]): inactive
Structure (SMILES): CCCCCCCC(=O)c1cc(C)c(OC(=O)CI)cc1O
- Activity (Mus musculus [17]): Dose-dependent effect
- Activity (Mus musculus [18]): Active

- IC50 ([1]; read-out: IC50): 15.7 µM
Structure (SMILES): Cc1cc(C(=O)C(C)C)c(O)c(Br)c1OC(=O)c1ccc(F)cc1

- IC50 ([1]; read-out: IC50): 24.9 µM
Structure (SMILES): Cc1cc(C(=O)C(C)C)c(O)c(Br)c1OC(=O)c1ccc(Cl)cc1

- IC50 ([1]; read-out: IC50): 8.45 µM
Structure (SMILES): CCCCCCCCCC(=O)Oc1cc(O)c(C(=O)C(C)C)cc1C

- IC50 ([1]; read-out: IC50): 25.4 µM
Structure (SMILES): Cc1cc(C(=O)C(C)C)c(O)c(Br)c1OC(=O)c1ccc(I)cc1

- IC50 ([1]; read-out: IC50): 7.21 µM
Structure (SMILES): O=c1c(-c2ccc(O)cc2)coc2cc(O)cc(O)c12 [GENISTEIN]

- IC50 ([1]; read-out: IC50): 3.9 µM
Structure (SMILES): CCCCCC(=O)c1cc(C)c(OC(=O)CI)cc1O

- IC50 ([1]; read-out: IC50): 4.27 µM
Structure (SMILES): Cc1cc(C(=O)C(C)C)c(O)cc1OC(=O)CI
